From US10550143B2, “C,O-spiro aryl glycoside compounds, preparation therefor and use thereof” (SHANGHAI INSTITUTE OF MATERIA MEDICA, CHINESE ACADEMY OF …, priority 2015, dated 2020)

Experiments:
Assay type in all cases: in vivo, mouse
C57BL/6J mice = assay: Acute administration of A28 at multiple doses, oral glucose tolerance of C57BL/6J mice; conditions: C57BL/6J mice OGTT; for Blood glucose level 0: before sugar
Experimental: (1) Experimental Methods: 56 C57BL/6J mice were selected and starved for 6 h, took water freely, then randomly divided into 7 groups according to body weight and random blood glucose, 8 rats in each group. […] Average hypoglycemic rate %=(AUC0-120 min of solvent control group−AUC0-120 min of administration group)/(AUC0-120 min of solvent control group−AUC0-120 min of blank control group)*100%

db/db mice [1] = assay: Chronic administration, fasting blood glucose in db/db mice; conditions: for fasting blood glucose Pre: before administration; for Hypoglycemic rate % week 1 / Hypoglycemic rate % week 2 / Hypoglycemic rate % week 3 / Hypoglycemic rate % week 4: fasting blood glucose
Experimental: (§1) Oral gavage administrated, daily dose volume was 10 mL/kg, administered once daily. Administration time was 9: 00-10:00 daily, and the administration period was 5 weeks.
The random blood glucose of mice in the normal control group, model control group, test substance administration group and positive control group were determined on the 7th, 14th, 21st, 28th day (9: 00-10:00) every week after the first administration, and food was removed and after 6 hours of starvation, the fasting blood glucose in each group was measured. Free drinking during the hunger process. The rate of decrease of blood glucose was calculated according to the following formula: Average hypoglycemic rate %=(Blood glucose of model control group−Blood glucose of administration group)/Model control group×100%

db/db mice [2] = assay: Acute administration at multiple doses, random blood glucose in db/db mice; conditions: for Blood glucose level 0 h: before administration
Experimental: (1) 127 db/db mice (half male and half female) entered the animal laboratory of the institute at 7 weeks of age and were grouped at 10 weeks of age. Random blood glucose and random body weight of all db/db mice were determined at 9:00 am, and then fasted for 6 hours (free drinking). Fasting blood glucose and fasting body weight were determined, and blood was collected (10 μl EDTA+20 μl tail blood, centrifugated to collect supernatant) to determine the insulin content. […] The db/db mice were once orally administered at a dose of 10 mL/kg. Blood glucose levels were measured before administration, and at 1 h, 2 h, 3 h, 4 h, 6 h after administration, and the administration times and body weights were recorded. Mice took food and water freely during the experiment.
Average hypoglycemic rate %=(model control group−administration group)/(model control group−blank control group)*100%

db/db mice [3] = assay: Chronic administration, glycosylated hemoglobin level in db/db mice; conditions: for HbA1c Decline rate %: vs vehicle
Experimental: as §1
In the end of the above experiment, the orbital blood was taken from animals of each group and divided into two tubes, one was centrifuged to take blood cells for the determination of glycated hemoglobin content, the other tube was added with 25 μL EDTA in advance, centrifuged and the supernatant was taken to determine the indexes such as triglyceride (TG), total cholesterol (TC), total protein (TP), albumin, low density lipoprotein (LDL), high density lipoprotein (HDL), non-esterified fatty acid (NEFA) and so on.

CCOc1ccc(Cc2cc([C@@H]3O[C@H](CO)[C@@H](O)[C@H](O)[C@H]3O)ccc2Cl)cc1 [Dapa]
AUC0-2 h (C57BL/6J mice; oral 0.3 mg/kg): 20.9 ± 1.6 mmol·h/L | Average hypoglycemic rate % (0-2 h) (C57BL/6J mice; oral 0.3 mg/kg): 4.9% | Blood glucose level 15 min (C57BL/6J mice; oral 0.3 mg/kg): 13.4 ± 2.3 mmol/L | Blood glucose level 30 min (C57BL/6J mice; oral 0.3 mg/kg): 12.1 ± 1.0 mmol/L | Blood glucose level 60 min (C57BL/6J mice; oral 0.3 mg/kg): 10.6 ± 1.0 mmol/L | Blood glucose level 90 min (C57BL/6J mice; oral 0.3 mg/kg): 9.3 ± 1.1 mmol/L | Blood glucose level 120 min (C57BL/6J mice; oral 0.3 mg/kg): 8.8 ± 0.8 mmol/L | Blood glucose level 0 (C57BL/6J mice; oral 0.3 mg/kg): 7.1 ± 0.4 mmol/L | AUC0-2 h (C57BL/6J mice; oral 1 mg/kg): 19.3 ± 1.3 mmol·h/L | Average hypoglycemic rate % (0-2 h) (C57BL/6J mice; oral 1 mg/kg): 12.4% | Blood glucose level 15 min (C57BL/6J mice; oral 1 mg/kg): 12.3 ± 1.1 mmol/L | Blood glucose level 30 min (C57BL/6J mice; oral 1 mg/kg): 12.0 ± 1.1 mmol/L | Blood glucose level 60 min (C57BL/6J mice; oral 1 mg/kg): 9.1 ± 1.1 mmol/L | Blood glucose level 90 min (C57BL/6J mice; oral 1 mg/kg): 8.4 ± 0.9 mmol/L | Blood glucose level 120 min (C57BL/6J mice; oral 1 mg/kg): 8.5 ± 0.9 mmol/L | Blood glucose level 0 (C57BL/6J mice; oral 1 mg/kg): 6.5 ± 0.9 mmol/L | AUC0-2 h (C57BL/6J mice; oral 3 mg/kg): 18.2 ± 1.6 mmol·h/L | Average hypoglycemic rate % (0-2 h) (C57BL/6J mice; oral 3 mg/kg): 17.5% | Blood glucose level 15 min (C57BL/6J mice; oral 3 mg/kg): 11.6 ± 0.9 mmol/L | Blood glucose level 30 min (C57BL/6J mice; oral 3 mg/kg): 11.6 ± 1.1 mmol/L | Blood glucose level 60 min (C57BL/6J mice; oral 3 mg/kg): 8.9 ± 1.4 mmol/L | Blood glucose level 90 min (C57BL/6J mice; oral 3 mg/kg): 7.9 ± 1.1 mmol/L | Blood glucose level 120 min (C57BL/6J mice; oral 3 mg/kg): 7.0 ± 0.6 mmol/L | Blood glucose level 0 (C57BL/6J mice; oral 3 mg/kg): 6.1 ± 1.0 mmol/L | fasting blood glucose week 1 (db/db mice [1]; 1 mg/kg once daily oral): 9.4 ± 0.6 mmol/L | fasting blood glucose week 2 (db/db mice [1]; 1 mg/kg once daily oral): 9.0 ± 0.6 mmol/L | fasting blood glucose week 3 (db/db mice [1]; 1 mg/kg once daily oral): 10.0 ± 1.0 mmol/L | fasting blood glucose week 4 (db/db mice [1]; 1 mg/kg once daily oral): 9.7 ± 0.7 mmol/L | fasting blood glucose Pre (db/db mice [1]; 1 mg/kg once daily oral): 14.0 ± 1.0 mmol/L | fasting blood glucose week 1 (db/db mice [1]; 3 mg/kg once daily oral): 8.1 ± 0.6 mmol/L | fasting blood glucose week 2 (db/db mice [1]; 3 mg/kg once daily oral): 7.7 ± 0.6 mmol/L | fasting blood glucose week 3 (db/db mice [1]; 3 mg/kg once daily oral): 8.6 ± 0.4 mmol/L | fasting blood glucose week 4 (db/db mice [1]; 3 mg/kg once daily oral): 7.8 ± 0.4 mmol/L | fasting blood glucose Pre (db/db mice [1]; 3 mg/kg once daily oral): 13.8 ± 1.2 mmol/L | Hypoglycemic rate % week 1 (db/db mice [1]; 1 mg/kg once daily oral): 30.3% | Hypoglycemic rate % week 2 (db/db mice [1]; 1 mg/kg once daily oral): 59.0% | Hypoglycemic rate % week 3 (db/db mice [1]; 1 mg/kg once daily oral): 43.9% | Hypoglycemic rate % week 4 (db/db mice [1]; 1 mg/kg once daily oral): 39.5% | Hypoglycemic rate % week 1 (db/db mice [1]; 3 mg/kg once daily oral): 39.8% | Hypoglycemic rate % week 2 (db/db mice [1]; 3 mg/kg once daily oral): 65.1% | Hypoglycemic rate % week 3 (db/db mice [1]; 3 mg/kg once daily oral): 51.6% | Hypoglycemic rate % week 4 (db/db mice [1]; 3 mg/kg once daily oral): 51.0% | AUC0-6 h (db/db mice [2]; single oral 1 mg/kg): 67.8 ± 2.5 mmol·h/L | Blood glucose level 1 h (db/db mice [2]; single oral 1 mg/kg): 13.0 ± 0.7 mmol/L | Blood glucose level 2 h (db/db mice [2]; single oral 1 mg/kg): 11.4 ± 0.6 mmol/L | Blood glucose level 3 h (db/db mice [2]; single oral 1 mg/kg): 10.2 ± 0.6 mmol/L | Blood glucose level 4 h (db/db mice [2]; single oral 1 mg/kg): 9.8 ± 0.7 mmol/L | Blood glucose level 6 h (db/db mice [2]; single oral 1 mg/kg): 8.8 ± 0.6 mmol/L | Blood glucose level 0 h (db/db mice [2]; single oral 1 mg/kg): 19.3 ± 1.3 mmol/L | AUC0-6 h (db/db mice [2]; single oral 3 mg/kg): 59.7 ± 1.7 mmol·h/L | Blood glucose level 1 h (db/db mice [2]; single oral 3 mg/kg): 11.8 ± 0.5 mmol/L | Blood glucose level 2 h (db/db mice [2]; single oral 3 mg/kg): 8.5 ± 0.4 mmol/L | Blood glucose level 3 h (db/db mice [2]; single oral 3 mg/kg): 8.6 ± 0.5 mmol/L | Blood glucose level 4 h (db/db mice [2]; single oral 3 mg/kg): 8.5 ± 0.3 mmol/L | Blood glucose level 6 h (db/db mice [2]; single oral 3 mg/kg): 9.4 ± 0.7 mmol/L | Blood glucose level 0 h (db/db mice [2]; single oral 3 mg/kg): 17.5 ± 1.3 mmol/L | HbA1c (%) (db/db mice [3]; dose 1 mg/kg): 5.79 ± 0.32 % | HbA1c Decline rate % (db/db mice [3]; dose 1 mg/kg): 23.7% | HbA1c (%) (db/db mice [3]; dose 3 mg/kg): 5.32 ± 0.26 % | HbA1c Decline rate % (db/db mice [3]; dose 3 mg/kg): 29.9%
